Reference: US12653776B2, “Methods of treatment of cancer by continuous infusion of coenzyme Q10” (priority 2013, dated 2026)

Tests used:
[1] = test system: acute erythro-leukemia (K562) cells; assay: Acute erythroleukemia (K562) mouse model, survival; assay type: in vivo, mice
Protocol: Human acute erythro-leukemia (K562) and acute myeloid leukemia (KG1) cells (1×10^6) were injected intraperitoneally in immune-compromised mice. Engraftment was confirmed by complete blood counts, presence of anemia, and clinical assessment of animal behavior.
The mice (total n=120 for each model respectively) were randomized into four (n=30/group) treatment groups. Each treatment regimen was administered in a four week cycle with three weeks of treatment, one week off: • 1. Untreated (control) • 2. Coenzyme Q10 (4%, administered at 75 mg/kg, once/day by continuous infusion) • 3. Chemotherapy (cytarabine/AraC 25 mg/kg, 5×/week; and adriamycin/daunorubicin 5 mg/kg; 1×/wk) • 4. Coenzyme Q10 (4%, administered at 75 mg/kg, once/day by continuous infusion)+chemotherapy (cytarabine/AraC 25 mg/kg, 5×/week; and adriamycin/daunorubicin 5 mg/kg; 1×/wk)
All dosings were intravenous and followed a protocol of 3 week treatment followed by 1 week rest. Leukemia was monitored by pallor and blood smears, and hone marrow smears were performed post-mortem for analysis using Wright's stain. Survival results from the study of mice with acute erythroleukemia are show in FIG. 5. Day 1 is the first day of treatment with coenzyme Q10 and/or chemotherapy.

[2] = test system: liver chloromas (MIA C51 clone); assay: Liver chloroma rat model, survival; assay type: in vivo, rats
Excerpt: The effect of dosing schedule of coenzyme Q10 was also investigated in rats bearing liver or lung chloromas. Rats were transplanted with liver or lung clones of malignant chloromas derived from a stable myelogenous leukemia (chloroleukemia) cell line, MIA C51 (see. e.g., Jimenez and Yunis (1987) Science 238: 1278-1280). The clones have been selected to home to and form tumors in the liver or lungs, respectively. Rats were randomized to receive either no treatment, injection 3 times a day with 40 mg/mL (4%) coenzyme Q10, or continuous infusion of 40 mg/mL (4%) coenzyme Q10 via an implanted pump, to deliver for each regimen a total dose of 50 mg/kg body weight per day. […] For example, at Day 189 in the liver chloroma model, 45 of 50 rats were alive in the continuous infusion treatment group compared with 26 of 50 rats alive in the injection treatment group. All control animals were dead at Day 30.

Substance: coenzyme Q10
- survival ([1]; coenzyme Q10 75 mg/kg/day continuous infusion + chemotherapy (cytarabine + daunorubicin) vs other groups incl. chemotherapy alone, p<0.00001): significant increase in survival
- survival ([1]; coenzyme Q10 alone (4%, 75 mg/kg once/day by continuous infusion) vs chemotherapy alone): relatively similar survival compared to chemotherapy alone
- survival compared to control ([2]; both continuous infusion and injection 3 times a day, 50 mg/kg per day): significantly prolonged survival
- rats alive at Day 189 ([2]; continuous infusion of 40 mg/mL (4%) coenzyme Q10, 50 mg/kg body weight per day): 45 of 50
- effectiveness of continuous infusion regimen ([2]; continuous infusion vs injection 3 times a day, 50 mg/kg per day): much more effective than the injection regimen
- rats alive at Day 189 ([2]; injection 3 times a day of 40 mg/mL (4%) coenzyme Q10, total 50 mg/kg body weight per day): 26 of 50
